Consider 89 compounds from a melting point compilation (Tetko et al.; mined from patent text by program, amines drawn as free bases though some values may be those of a salt).

On to `COc1ccc2c(c1)c(C=O)c(C)n2C(=O)c1ccc(Cl)cc1`, for which the melting point was in the range of 150 to 152 °C.

With `Oc1ccc2ccc(OCc3ccc4ccccc4n3)cc2c1`, the melting point lay within 218 to 220 °C.

In turn, `O=C1CC2(CC=CC2)CC(=O)N1` came in with a melting point of 150 to 153 °C.

The compound `CCCCOc1ccc(S(=O)(=O)C2(C(=O)NO)CCN(CCOc3ccccc3)CC2)cc1` registered a melting point of 112 °C.

`CCOC(=O)c1ncn2c1cc(-c1ccccc1)c1ccccc12` displayed a melting point of 176 to 185 °C.

`CC(N=Cc1ccc(O)cc1)c1ccc(Br)cc1` (single isomer, unassigned; (-)) had a melting point of 156 to 161 °C.

With `CCOC(=O)c1conc1-c1cccc(C#N)c1`, the melting point is 135 to 137 °C.

`CC(C)(C)OC(=O)N1CCc2c(n(CCOc3ccccc3)c3cc(Cl)c(Cl)cc23)CC1` had a melting point of 136 to 138 °C.

On to `Cc1ccc(C(C)(C)C)c(SC2=C(O)CC(CCc3ccccc3)(c3ccc(OCCO)cc3)OC2=O)c1` (centres undefined), for which the melting point fell in the range of 70 to 73 °C.

`Nc1ccc2c(c1)CCC1CC(=O)NN=C21` (centres undefined) registered a melting point of 290 to 291 °C.

The compound `CN1C(=O)C(c2ccc(OCCCCBr)cc2)Sc2cc(Cl)ccc21` (centres undefined) displayed a melting point of 70 to 72 °C.

In turn, `CC(=O)NC(C(=O)NCc1cccnc1)c1ccco1` (centres undefined) displayed a melting point of 172 to 174 °C.

Compound `Cc1cc(C(C)C)cc(C)c1CO` displayed a melting point of 75 to 77 °C.

For the compound `c1cc(-c2cccc3ncoc23)c2ocnc2c1`, the melting point was 226 to 228 °C.

With `C(#Cc1cccs1)c1ccccc1`, the melting point lay in the range of 49 to 59 °C.

Regarding `NC1CCCn2c1nc(-c1ccncc1)cc2=O` (racemic), the melting point is 144 to 146 °C.

`C=CCC1C(OCc2ccccc2)CC(OCc2ccccc2)C1OS(=O)(=O)c1ccc(C)cc1` (single isomer, unassigned; (-)): the melting point was 57 to 58 °C.

For `COC(=O)c1c(O)ccn1C`, the melting point lay within 44 to 46 °C.

Consider `CC(C)(C)c1cc(CCc2ccccc2NC(=O)NC2CCC(O)CC2)cc(C(C)(C)C)c1O` (centres undefined), for which the melting point was in the range of 202 to 203 °C.

`Cc1sc(N2C(=O)c3ccccc3C2=O)c(C(=O)c2ccc(Cl)cc2)c1CBr` gave a melting point of 173 to 175 °C.

As to `CCN(CC)c1c(C(=O)O)ccc(OC)c1OC`, the melting point fell in the range of 57 to 62 °C.

In turn, `O=C(C=Cc1cccnc1)NC(Cc1c[nH]c2ccccc12)C(=O)CCc1cc(C(F)(F)F)cc(C(F)(F)F)c1` (centres undefined) showed a melting point of 138 to 139 °C.

As for `Cc1cc(C(C)(C)C)cc2c1OCC(/C=C/C=C/C=C/C(=O)O)=C2`, the melting point is 225 to 227 °C.

In the case of `Cc1cn2cc(Cl)cc(Cl)c2n1`, the melting point lay in the range of 156 to 158 °C.

Take `NC(=O)c1cc2c(OCCCN3CCN(C(c4ccccc4)c4ccccc4)CC3)cccc2[nH]1`: the melting point lay in the range of 222 to 223 °C.

`COC(=O)c1sc2c(c1C)c1ccccc1n2C` had a melting point of 166 to 167 °C.

`CCC(Oc1c(C(C)C)cccc1C(C)C)C(=O)OC1CC(O)C=C2C=CC(C)C(CCC3CC(O)CC(=O)O3)C21` (mixture of isomers) showed a melting point of 119 to 121 °C.

Compound `CCCOC(N)=C(C#N)C(N)=S` yielded a melting point of 174 °C.

With `OCc1ccc2cc(OCc3ccccc3)ccc2c1`, the melting point was 130 to 132 °C.

In the case of `Cc1c(S(N)(=O)=O)c(-c2nnc(S)o2)nn1C`, the melting point lay within 243 to 245 °C.

In turn, `N#Cc1cn(-c2cccc(F)c2)c(=O)[nH]c1=O` registered a melting point of 246 °C.

On to `CCOC(=O)c1ccc2c(c1)S(=O)c1cc([N+](=O)[O-])ccc1-2` (centres undefined), for which the melting point was 245 to 250 °C.

With `Nc1cc(C(O)=S)cc(Cc2ccccc2)c1C(=O)c1ccccc1`, the melting point was 141 to 142 °C.

For `CC(C)(Oc1ccc(OCc2cnc(-c3ccc(C(F)(F)F)cc3)nc2C2CC2)c(F)c1)C(=O)O`, the melting point was 178 °C.

On to `O=c1[nH]c(-c2cccc3ccccc23)nc2ccc(N3CCOCC3)cc12`, for which the melting point lay in the range of 291 to 293 °C.

In the case of `CCCCCCCCOC(=O)Oc1ccc(-c2ccc(C#N)cc2)cc1`, the melting point stood at 51.6 °C.

Take `CCc1c(-c2ccccc2)c2c(c3c1[nH]c1ccc(O)cc13)C(=O)NC2=O`: the melting point lay in the range of 190 to 196 °C.

Take `COc1ccc(S(=O)(=O)Nc2cccc3c2N(C)c2ccccc2O3)cc1`: the melting point is 151 to 153 °C.

Turning to `CC(=O)N(C#N)C/C=C\CN(C#N)C(C)=O`, the melting point lay in the range of 73.8 to 75.2 °C.

Take `O=C1CCC(CCCOC2CCOCC2)(c2ccc(Cl)c(Cl)c2)CN1` (centres undefined): the melting point is 45 °C.

For the compound `CC1=C(C)C(=O)N(OC(=S)N(C)C)C1=O`, the melting point fell in the range of 135 to 138 °C.

`Fc1cc(Br)ccc1CSc1nc2cnccc2[nH]1` had a melting point of 204 to 206 °C.

`CNC(=O)c1ccc2c(c1Nc1nc(Nc3ccc4c(c3)CCCC(=O)N4C)ncc1Cl)OCO2`: the melting point fell in the range of 254 to 256 °C.

For `CC(=O)c1ccc2c(c1)ncn2-c1cccc(-c2cncnc2)c1`, the melting point is 253 to 254 °C.

`CC(C)c1cccc(C(C)C)c1NC(=O)Nc1nnnn1Cc1ccccc1` came in with a melting point of 195 to 197 °C.

Regarding `CC(O)c1ncnc(N2CCN(S(=O)(=O)N(C)C)CC2)n1` (centres undefined), the melting point was in the range of 124 to 125 °C.

As for `Brc1ccc(CN2CCOCC2)cc1`, the melting point lay in the range of 68 to 71 °C.

As for `COC(=O)CCC1CCCCCCCCCCC1=O` (centres undefined), the melting point was in the range of 33 to 35 °C.

`CC(O)c1c(Cl)nc2n(c1=O)CCS2` (centres undefined): the melting point fell in the range of 171 to 172 °C.

As to `COc1cc2c3nn(-c4ccc(Cl)cc4)c(=O)c-3c[nH]c2c(OC)n1`, the melting point lay in the range of 318 to 321 °C.

With `CC(C)c1cn2ccccc2c1S(=O)(=O)c1ccc(OCCCN(C)C)cc1`, the melting point lay within 90 to 92 °C.

Regarding `Cc1ccc(S(=O)(=O)OCCOCn2cc(F)c(=O)[nH]c2=O)cc1`, the melting point was 141 to 142 °C.

Take `CCNC(=O)[C@H]1N(C(=O)[C@@H](OC(C)=O)[C@H](Cc2ccccc2)NC(=O)c2cc(C)cc(OC(C)=O)c2C)CC(F)(F)C1(C)C`: the melting point was 88 to 93 °C.

Take `Cc1nnc(-c2ccc3occ(-c4cnn(Cc5cccnc5)c4)c3c2)o1`: the melting point lay in the range of 137 to 138 °C.

`O=C(NCCCN1CCN(Cc2ccccc2)CC1)Nc1ccccc1` returned a melting point of 45 to 47 °C.

Consider `Cc1cccc(NC(=O)NC2N=C(c3ccccc3F)c3ccccc3N(Cc3nccc4ccccc34)C2=O)c1` (racemic), for which the melting point lay within 145 to 147 °C.

The compound `O=C(O)Cc1ccc2c(c1)C(=O)c1cc(Cl)ccc1CS2` showed a melting point of 187 to 189 °C.

Compound `S=C(Nc1ccccc1)N1CCN(c2nc3cccccc-3n2)CC1` came in with a melting point of 267 to 269 °C.

The compound `COC(=O)CCCc1cc2nc(Cl)ccc2n1S(=O)(=O)c1ccc(C(C)(C)C)cc1` showed a melting point of 107 °C.

In the case of `CN(C)CCOc1cc2c(Nc3cccc(Br)c3)c(C#N)cnc2cn1`, the melting point fell in the range of 138 to 139 °C.

Regarding `COC(=O)CC(NC1CC1)=C(C(=O)OC)C(=O)C(F)(F)C(F)(F)F`, the melting point is 32 to 34 °C.

In turn, `Cc1nc(N2CCN(Cc3ccc(C(F)F)o3)C2=O)sc1C(=O)NCc1cccnc1` yielded a melting point of 142 to 143 °C.

In the case of `CN1CCN(c2ccc(N/C=C3\CN=Cc4ccccc43)cc2)CC1`, the melting point fell in the range of 245 to 246 °C.

`COc1cc([N+](=O)[O-])ccc1-c1sc(C)nc1C` showed a melting point of 123 to 125 °C.

Compound `COc1ccc(C)cc1NC(=O)Nc1ccc(N2CCN(C(N)=O)CC2)cc1` had a melting point of 136 °C.

As for `Nc1cc(Cl)c(OCc2ccccc2-c2ccccc2)c(Cl)c1`, the melting point was 67 to 69 °C.

As for `CC(C)(C)N(NCc1ccccc1)C(=O)c1ccccc1`, the melting point is 110 °C.

For the compound `CCCCCCC(C(=O)O)n1cnc(NC(=O)c2cccc(O)c2S(=O)(=O)O)c1` (centres undefined), the melting point lay within 238 to 240 °C.

Consider `CC(C)C(=O)C(C#N)=C(O)c1ccc(C(F)(F)F)cc1[N+](=O)[O-]`, for which the melting point lay within 83 to 85 °C.

With `O=C(O)CC1CCN(Cc2ccccc2)C1c1c(Cl)cccc1Cl` (centres undefined), the melting point lay in the range of 186 to 188 °C.

As for `CCCc1nc2c(c(C)c(C)n3nnnc23)n1CC(C)(C)NC(=O)c1ccccc1`, the melting point is 221 to 223 °C.

For the compound `NN1C=Nc2ccc(Cl)cc2C1(O)c1ccccc1` (centres undefined), the melting point lay within 157 to 158 °C.

`Cc1cc2oc3ccccc3c(=O)c2cc1OCC(=O)O` registered a melting point of 225 to 227 °C.

`COCCN1CCc2ccc(Nc3ncc(Cl)c(Nc4ccccc4C(=O)NCC(C)C)n3)cc2CC1` gave a melting point of 178 to 181 °C.

`N#CC(C#N)=C1Sc2nc3cc([N+](=O)[O-])c([N+](=O)[O-])cc3nc2S1` gave a melting point of over 300 °C.

On to `COc1cc(CBr)c(OC)cc1Cl`, for which the melting point was in the range of 85 to 88 °C.

For the compound `CCc1oc(-c2ccc(C(F)(F)F)cc2)cc1CCC(=O)O`, the melting point lay in the range of 94 to 95 °C.

In turn, `COC(=O)c1cc(OC)c(O)c(C23CC4CC(CC(C4)C2)C3)c1` had a melting point of 179 °C.

Turning to `CS(=O)(=O)c1ccccc1C(=O)C(C#N)C(=O)C1CC1` (centres undefined), the melting point was 155 °C.

In the case of `COC(=O)C(C)(C)n1c(=O)[nH]c2ccccc2c1=O`, the melting point lay in the range of 158 to 159 °C.

`Cc1nc2c(OCc3ccccc3)cc(Br)cc2n1COCC[Si](C)(C)C` had a melting point of 94 to 95 °C.

As to `C=C1N(C(C)(C)C)C(=O)OC12CCN(C(=O)CC)CC2`, the melting point was in the range of 104 to 105 °C.

In the case of `CC(=O)c1ccc(N2CCC(N(C)Cc3ccc(F)cc3)CC2)cc1`, the melting point was 133 °C.

`CCCc1nc2c(N)nc3ccccc3c2n1CCCC(CC(C)C)=NO` came in with a melting point of 207 to 209 °C.

For the compound `CC(C(=O)O)c1ccc2c(c1)Cc1cc(F)ccc1S2` (centres undefined), the melting point was 140 to 145 °C.

For the compound `Cc1ccc(S(=O)(=O)NC(=O)C2C(=O)CC(c3ccccc3)CC2=O)cc1` (centres undefined), the melting point fell in the range of 164 to 166 °C.

For `CCCn1c(-c2ccc(O)cc2)cnc1SC`, the melting point came out at 157 °C.

In the case of `CC1(C)CC(=C[C@H]2[C@H](C(=O)O)C2(C)C)CC(C)(C)C1` (relative stereo), the melting point is 116 °C.

Regarding `COc1ccc(CNc2cc(Cn3c(C(=O)c4cc(C)cc(C)c4)c(C(C)C)c(=O)[nH]c3=O)cc(Cl)n2)cc1`, the melting point was 211 to 212 °C.
